Assays:
5-Lipoxygenase = target: T1, 5-Lipoxygenase (Cavia porcellus, UniProt A0A286X958); experiment: 5-Lipoxygenase inhibiting activity; assay type: biochemical; details: cytosol fraction of guinea pig polymorphonuclear leucocytes, 14C-arachidonic acid, 5-hydroxyeicosatetraenoic acid formation
T1 construct: the polymorphonuclear leucocytes were collected and the cytosol fraction was obtained as an enzyme source; endogenous in cells; host or cells: guinea pig peritoneal polymorphonuclear leucocytes, cytosol fraction
T1 sequence (A0A286X958 1-674): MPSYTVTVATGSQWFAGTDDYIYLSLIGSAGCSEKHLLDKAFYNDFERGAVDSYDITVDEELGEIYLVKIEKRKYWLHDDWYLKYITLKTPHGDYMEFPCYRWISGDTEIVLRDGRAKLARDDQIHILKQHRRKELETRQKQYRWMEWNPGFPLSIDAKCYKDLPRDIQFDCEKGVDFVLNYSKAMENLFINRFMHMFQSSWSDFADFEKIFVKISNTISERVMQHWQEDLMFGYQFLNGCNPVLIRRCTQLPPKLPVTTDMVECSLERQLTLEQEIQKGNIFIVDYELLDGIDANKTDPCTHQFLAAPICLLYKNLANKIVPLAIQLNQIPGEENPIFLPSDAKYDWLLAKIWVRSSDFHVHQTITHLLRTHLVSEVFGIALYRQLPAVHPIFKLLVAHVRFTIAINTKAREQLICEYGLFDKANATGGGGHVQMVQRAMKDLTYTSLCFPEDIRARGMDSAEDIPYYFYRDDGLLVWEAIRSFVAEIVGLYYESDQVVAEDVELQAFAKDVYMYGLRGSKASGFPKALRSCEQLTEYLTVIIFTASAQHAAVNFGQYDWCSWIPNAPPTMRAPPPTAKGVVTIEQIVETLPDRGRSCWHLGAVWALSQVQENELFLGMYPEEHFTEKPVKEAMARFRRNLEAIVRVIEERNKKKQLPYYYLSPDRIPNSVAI
Method: (2) 5-Lipoxygenase inhibiting activity
This assay was carried out by the method described in Kenkichi Ochi et al., J. Biol. Chem., 258, 5754-5758 (1983).
Casein was injected into the abdominal cavity of a guinea pig, and the polymorphonuclear leucocytes were collected and the cytosol fraction was obtained as an enzyme source. ^14 C-arachidonic acid was reacted with the enzyme and the test drug at various concentrations over a predetermined period of time. The obtained 5-hydroxyeicosatetraenoic acid was separated by thin layer chromatography and the radioactivity was determined. The IC^50 values were calculated by the comparison with the radioactivity of the control.

cyclooxygenase = experiment: Cyclooxygenase inhibiting effect; assay type: biochemical; details: seminal vasicular gland microsomes, 14C-arachidonic acid, prostaglandin E2 formation
Method: (1) Cyclooxygenase inhibiting effect
This assay was carried out by the method described in Russell J. Taylor et al., Biochem. Pharmacol., 25, 2479-2484 (1976).
^14 C-arachidonic acid was reacted with seminal vasicular gland microsomes and the test drugs at various concentrations over a predetermined period of time and the obtained prostaglandin E2 was separated by thin layer chromatography. The radioactivity of prostaglandin E2 was determined by liquid scintillation counter. The IC50 values were calculated by the comparison with the radioactivity of the control.

| Structure (SMILES) | IC50 (5-Lipoxygenase) | IC50 (cyclooxygenase) |
| --- | --- | --- |
| COc1ccc(-c2noc(CCCC(=O)/C=C/c3cc(C)c(O)c(C)c3)c2-c2ccc(OC)cc2)cc1 [Compound 40] | 3030 nM | 240 nM |
| COc1ccc(-c2noc(CNC(=O)/C=C/C=C/c3cc(OC)c(O)c(OC)c3)c2-c2ccc(OC)cc2)cc1 [Compound 16] | 230 nM | 290 nM |
| COc1ccc(-c2noc(CCNC(=O)/C=C/C=C/c3cc(OC)c(O)c(OC)c3)c2-c2ccc(OC)cc2)cc1 [Compound 13] | 50 nM | 10 nM |
| COc1ccc(-c2noc(CCNC(=O)/C=C/c3ccc(O)c(O)c3)c2-c2ccc(OC)cc2)cc1 [Compound 5] | 113 nM | 100 nM |
| COc1ccc(-c2c(-c3ccc(Cl)cc3)noc2CCNC(=O)/C=C/c2ccc(O)c(O)c2)cc1 [Compound 8] | 86 nM | 1500 nM |
| COc1ccc(-c2noc(CCCC(=O)/C=C/c3ccc(O)c(O)c3)c2-c2ccc(OC)cc2)cc1 [Compound 38] | 55 nM | 140 nM |
| COc1ccc(-c2noc(CCNC(=O)/C=C/C=C/c3c(OC)cc(O)cc3OC)c2-c2ccc(OC)cc2)cc1 [Compound 14] | 130 nM | < 10 nM |
| COc1ccc(-c2noc(CCCC(=O)/C=C/c3cc(OC)c(O)c(OC)c3)c2-c2ccc(OC)cc2)cc1 [Compound 39] | 180 nM | 1310 nM |
| COc1ccc(-c2noc(CCNC(=S)/C=C/c3ccc(O)c(OC)c3)c2-c2ccc(OC)cc2)cc1 [Compound 48] | 630 nM | 30 nM |
| COc1ccc(-c2noc(CCNC(=O)/C=C/c3cc(OC)c(O)c(OC)c3)c2-c2ccc(OC)cc2)cc1 [Compound 10] | 670 nM | 100 nM |
| COc1ccc(-c2noc(CCOC(=O)/C=C/c3ccc(O)c(O)c3)c2-c2ccc(OC)cc2)cc1 [Compound 4] | 62 nM | 66 nM |

More lines, in order of falling IC50 (5-Lipoxygenase), values ahead:

| IC50 (5-Lipoxygenase) | IC50 (cyclooxygenase) | Structure (SMILES) |
| --- | --- | --- |
| 390 nM | 280 nM | COc1ccc(-c2noc(C(=O)/C=C/C=C/c3ccc(O)c(OC)c3)c2-c2ccc(OC)cc2)cc1 [Compound 46] |
| 240 nM | 15 nM | COc1ccc(-c2noc(CCNC(=O)/C=C/C=C/c3ccc(O)c(OC)c3)c2-c2ccc(OC)cc2)cc1 [Compound 12] |
| 110 nM | 50 nM | COc1ccc(-c2noc(CNC(=O)/C=C/C=C/c3ccc(O)c(OC)c3)c2-c2ccc(OC)cc2)cc1 [Compound 15] |
| 110 nM | 2600 nM | Cc1ccc(-c2noc(CCNC(=O)/C=C/c3ccc(O)c(O)c3)c2-c2ccc(C)cc2)cc1 [Compound 7] |
| 100 nM | 2600 nM | O=C(/C=C/c1ccc(O)c(O)c1)NCCc1onc(-c2ccccc2)c1-c1ccccc1 [Compound 6] |

From patent US5399577A, “Isoxazole derivatives and salts thereof” (Taiho Pharmaceutical Co., Ltd., priority 1991, dated 1995)
